Measured values: ChEMBL document CHEMBL3351686, “Facile and diastereoselective synthesis of 3,2'-spiropyrrolidine-oxindoles derivatives, their molecular docking and antiproliferative activities” (2015)
≈ marks a conversion by molar mass, not a printed value.

How the values were obtained:
[1] = system: Salmonella typhimurium; assay: Antibacterial activity against Salmonella typhimurium MTCC 1251 assessed as zone of inhibition at 1 mg/disc after 24 hrs by disc diffusion method; format: functional, Salmonella enterica subsp. enterica serovar Typhimurium
[2] = system: Klebsiella pneumoniae; assay: Antibacterial activity against Klebsiella pneumoniae MTCC 109 assessed as zone of inhibition at 1 mg/disc after 24 hrs by disc diffusion method; format: functional
[3] = system: Proteus vulgaris; assay: Antibacterial activity against Proteus vulgaris MTCC 1771 assessed as zone of inhibition at 1 mg/disc after 24 hrs by disc diffusion method; format: functional
[4] = system: Shigella flexneri; assay: Antibacterial activity against Shigella flexneri MTCC 1457 assessed as zone of inhibition at 1 mg/disc after 24 hrs by disc diffusion method; format: functional
[5] = system: Micrococcus luteus; assay: Antibacterial activity against Micrococcus luteus MTCC 106 assessed as zone of inhibition at 1 mg/disc after 24 hrs by disc diffusion method; format: functional
[6] = system: Klebsiella aerogenes; assay: Antibacterial activity against Enterobacter aerogenes MTCC 111 assessed as zone of inhibition at 1 mg/disc after 24 hrs by disc diffusion method; format: functional
[7] = system: Staphylococcus epidermidis; assay: Antibacterial activity against Staphylococcus epidermidis MTCC 3615 assessed as zone of inhibition at 1 mg/disc after 24 hrs by disc diffusion method; format: functional
[8] = system: Staphylococcus aureus; assay: Antibacterial activity against Staphylococcus aureus MTCC 96 assessed as zone of inhibition at 1 mg/disc after 24 hrs by disc diffusion method; format: functional
[9] = system: Staphylococcus aureus; assay: Antibacterial activity against methicillin-resistant Staphylococcus aureus assessed as zone of inhibition at 1 mg/disc after 24 hrs by disc diffusion method; format: functional
[10] = system: Candida albicans; assay: Antifungal activity against Candida albicans MTCC 227 assessed as zone of inhibition at 1 mg/disc after 48 hrs by disc diffusion method; format: functional
[11] = system: Malassezia pachydermatis; assay: Antifungal activity against Malassezia pachydermatis assessed as zone of inhibition at 1 mg/disc after 48 hrs by disc diffusion method; format: functional
[12] = system: Salmonella typhimurium; assay: Antibacterial activity against Salmonella typhimurium MTCC 1251 assessed as inhibition of visual growth after 24 hrs; format: functional, Salmonella enterica subsp. enterica serovar Typhimurium; details: Salmonella enterica, MTCC 1251, 24 h
[13] = system: Klebsiella pneumoniae; assay: Antibacterial activity against Klebsiella pneumoniae MTCC 109 assessed as inhibition of visual growth after 24 hrs; format: functional; details: MTCC 109, 24 h
[14] = system: Proteus vulgaris; assay: Antibacterial activity against Proteus vulgaris MTCC 1771 assessed as inhibition of visual growth after 24 hrs; format: functional; details: MTCC 1771, 24 h
[15] = system: Micrococcus luteus; assay: Antibacterial activity against Micrococcus luteus MTCC 106 assessed as inhibition of visual growth after 24 hrs; format: functional; details: MTCC 106, 24 h
[16] = system: Klebsiella aerogenes; assay: Antibacterial activity against Enterobacter aerogenes MTCC 111 assessed as inhibition of visual growth after 24 hrs; format: functional; details: MTCC 111, 24 h
[17] = system: Staphylococcus epidermidis; assay: Antibacterial activity against Staphylococcus epidermidis MTCC 3615 assessed as inhibition of visual growth after 24 hrs; format: functional; details: MTCC 3615, 24 h
[18] = system: Staphylococcus aureus; assay: Antibacterial activity against Staphylococcus aureus MTCC 96 assessed as inhibition of visual growth after 24 hrs; format: functional; details: MTCC 96, 24 h
[19] = system: Staphylococcus aureus; assay: Antibacterial activity against methicillin-resistant Staphylococcus aureus assessed as inhibition of visual growth after 24 hrs; format: functional
[20] = system: Candida albicans; assay: Antifungal activity against Candida albicans MTCC 227 assessed as inhibition of visual growth after 48 to 72 hrs; format: functional
[21] = system: Malassezia pachydermatis; assay: Antifungal activity against Malassezia pachydermatis assessed as inhibition of visual growth after 48 to 72 hrs; format: functional
[22] = system: Shigella flexneri; assay: Antibacterial activity against Shigella flexneri MTCC 1457 assessed as inhibition of visual growth after 24 hrs; format: functional; details: MTCC 1457, 24 h

Compound: CN1C[C@](C#N)(C(=O)c2c[nH]c3ccccc23)[C@@H](c2cn(-c3ccccc3)nc2-c2ccccc2)[C@@]12C(=O)Nc1ccc([N+](=O)[O-])cc12
- inhibition zone (IZ) [1]: 12 mm
- inhibition zone (IZ) [2]: 17 mm
- inhibition zone (IZ) [3]: 14 mm
- inhibition zone (IZ) [4]: 20 mm
- inhibition zone (IZ) [5]: 18 mm
- inhibition zone (IZ) [6]: 15 mm
- inhibition zone (IZ) [7]: 15 mm
- inhibition zone (IZ) [8]: 19 mm
- inhibition zone (IZ) [9]: 18 mm
- inhibition zone (IZ) [10]: 13 mm
- inhibition zone (IZ) [11]: 8 mm
- MIC [12]: 500 µg/mL (≈ 789 µM)
- MIC [13]: 500 µg/mL (≈ 789 µM)
- MIC [14]: 250 µg/mL (≈ 395 µM)
- MIC [15]: 250 µg/mL (≈ 395 µM)
- MIC [16]: 500 µg/mL (≈ 789 µM)
- MIC [17]: 500 µg/mL (≈ 789 µM)
- MIC [18]: 250 µg/mL (≈ 395 µM)
- MIC [19]: 125 µg/mL (≈ 197 µM)
- MIC [20]: 250 µg/mL (≈ 395 µM)
- MIC [21]: 500 µg/mL (≈ 789 µM)

Compound: C=CCN1C(=O)[C@]2(c3ccccc31)[C@H](c1cn(-c3ccccc3)nc1-c1ccccc1)[C@@](C#N)(C(=O)c1c[nH]c3ccccc13)C1CCCN12 (stereo partly specified)
- inhibition zone (IZ) [1]: 10 mm
- inhibition zone (IZ) [2]: 9 mm
- inhibition zone (IZ) [3]: 10 mm
- MIC [12]: 500 µg/mL (≈ 764 µM)
- MIC [13]: 500 µg/mL (≈ 764 µM)
- MIC [14]: 250 µg/mL (≈ 382 µM)
- MIC [22]: 250 µg/mL (≈ 382 µM)
- MIC [15]: 250 µg/mL (≈ 382 µM)
- MIC [16]: 250 µg/mL (≈ 382 µM)
- MIC [17]: 125 µg/mL (≈ 191 µM)
- MIC [18]: 125 µg/mL (≈ 191 µM)
- MIC [19]: 250 µg/mL (≈ 382 µM)
- MIC [20]: 250 µg/mL (≈ 382 µM)
- MIC [21]: 500 µg/mL (≈ 764 µM)

Compound: CCCCN1C(=O)[C@]2(c3ccccc31)[C@H](c1cn(-c3ccccc3)nc1-c1ccccc1)[C@@](C#N)(C(=O)c1c[nH]c3ccccc13)C1CCCN12 (stereo partly specified)
- inhibition zone (IZ) [1]: 8 mm
- inhibition zone (IZ) [2]: 9 mm
- inhibition zone (IZ) [3]: 10 mm
- inhibition zone (IZ) [4]: 10 mm
- inhibition zone (IZ) [5]: 9 mm
- inhibition zone (IZ) [6]: 11 mm
- inhibition zone (IZ) [7]: 10 mm
- inhibition zone (IZ) [8]: 11 mm
- inhibition zone (IZ) [9]: 12 mm
- MIC [12]: 125 µg/mL (≈ 186 µM)
- MIC [13]: 250 µg/mL (≈ 373 µM)
- MIC [14]: 250 µg/mL (≈ 373 µM)
- MIC [15]: 500 µg/mL (≈ 745 µM)
- MIC [16]: 500 µg/mL (≈ 745 µM)
- MIC [17]: 62.5 µg/mL (≈ 93.2 µM)
- MIC [18]: 125 µg/mL (≈ 186 µM)
- MIC [19]: 500 µg/mL (≈ 745 µM)
- MIC [20]: 500 µg/mL (≈ 745 µM)

Compound: CN1C(=O)[C@]2(c3ccccc31)[C@H](c1cn(-c3ccccc3)nc1-c1ccccc1)[C@@](C#N)(C(=O)c1c[nH]c3ccccc13)C1CCCN12 (stereo partly specified)
- inhibition zone (IZ) [1]: 13 mm
- inhibition zone (IZ) [2]: 11 mm
- inhibition zone (IZ) [3]: 12 mm
- inhibition zone (IZ) [4]: 9 mm
- inhibition zone (IZ) [5]: 8 mm
- inhibition zone (IZ) [6]: 10 mm
- inhibition zone (IZ) [7]: 12 mm
- inhibition zone (IZ) [8]: 9 mm
- inhibition zone (IZ) [9]: 10 mm
- MIC [12]: 500 µg/mL (≈ 795 µM)
- MIC [13]: 500 µg/mL (≈ 795 µM)
- MIC [14]: 250 µg/mL (≈ 398 µM)
- MIC [22]: 250 µg/mL (≈ 398 µM)
- MIC [15]: 500 µg/mL (≈ 795 µM)
- MIC [16]: 250 µg/mL (≈ 398 µM)
- MIC [17]: 250 µg/mL (≈ 398 µM)
- MIC [18]: 250 µg/mL (≈ 398 µM)
- MIC [19]: 125 µg/mL (≈ 199 µM)

Compound: C#CCN1C(=O)[C@]2(c3ccccc31)[C@H](c1cn(-c3ccccc3)nc1-c1ccccc1)[C@@](C#N)(C(=O)c1c[nH]c3ccccc13)C1CCCN12 (stereo partly specified)
- inhibition zone (IZ) [1]: 10 mm
- inhibition zone (IZ) [2]: 12 mm
- inhibition zone (IZ) [3]: 13 mm
- inhibition zone (IZ) [4]: 8 mm
- inhibition zone (IZ) [5]: 10 mm
- inhibition zone (IZ) [6]: 12 mm
- inhibition zone (IZ) [7]: 11 mm
- inhibition zone (IZ) [8]: 10 mm
- inhibition zone (IZ) [9]: 8 mm
- inhibition zone (IZ) [10]: 10 mm
- inhibition zone (IZ) [11]: 9 mm
- MIC [12]: 125 µg/mL (≈ 191 µM)
- MIC [13]: 250 µg/mL (≈ 383 µM)
- MIC [14]: 250 µg/mL (≈ 383 µM)
- MIC [22]: 500 µg/mL (≈ 766 µM)
- MIC [15]: 500 µg/mL (≈ 766 µM)
- MIC [16]: 250 µg/mL (≈ 383 µM)
- MIC [17]: 125 µg/mL (≈ 191 µM)
- MIC [18]: 500 µg/mL (≈ 766 µM)
- MIC [19]: 250 µg/mL (≈ 383 µM)

Compound: C=CCN1C(=O)[C@]2(c3ccccc31)[C@H](c1cn(-c3ccccc3)nc1-c1ccccc1)[C@@](C#N)(C(=O)c1c[nH]c3ccccc13)C1CSCN12 (stereo partly specified)
- inhibition zone (IZ) [1]: 10 mm
- inhibition zone (IZ) [2]: 9 mm
- inhibition zone (IZ) [3]: 10 mm
- inhibition zone (IZ) [4]: 9 mm
- inhibition zone (IZ) [5]: 11 mm
- inhibition zone (IZ) [6]: 9 mm
- inhibition zone (IZ) [7]: 11 mm
- inhibition zone (IZ) [8]: 12 mm
- inhibition zone (IZ) [9]: 9 mm
- inhibition zone (IZ) [10]: 12 mm
- inhibition zone (IZ) [11]: 10 mm
- MIC [12]: 250 µg/mL (≈ 372 µM)
- MIC [13]: 500 µg/mL (≈ 743 µM)
- MIC [14]: 500 µg/mL (≈ 743 µM)
- MIC [22]: 500 µg/mL (≈ 743 µM)
- MIC [15]: 500 µg/mL (≈ 743 µM)
- MIC [16]: 250 µg/mL (≈ 372 µM)
- MIC [17]: 125 µg/mL (≈ 186 µM)
- MIC [18]: 250 µg/mL (≈ 372 µM)
- MIC [19]: 500 µg/mL (≈ 743 µM)
- MIC [20]: 250 µg/mL (≈ 372 µM)

Compound: N#C[C@]1(C(=O)c2c[nH]c3ccccc23)C2CSCN2[C@]2(C(=O)N(Cc3ccccc3)c3ccccc32)[C@@H]1c1cn(-c2ccccc2)nc1-c1ccccc1 (stereo partly specified)
- inhibition zone (IZ) [3]: 10 mm
- MIC [12]: 250 µg/mL (≈ 346 µM)
- MIC [13]: 250 µg/mL (≈ 346 µM)
- MIC [14]: 500 µg/mL (≈ 692 µM)
- MIC [22]: 500 µg/mL (≈ 692 µM)
- MIC [15]: 250 µg/mL (≈ 346 µM)
- MIC [16]: 250 µg/mL (≈ 346 µM)
- MIC [17]: 125 µg/mL (≈ 173 µM)
- MIC [18]: 62.5 µg/mL (≈ 86.5 µM)
- MIC [19]: 500 µg/mL (≈ 692 µM)
- MIC [20]: 500 µg/mL (≈ 692 µM)
- MIC [21]: 500 µg/mL (≈ 692 µM)

Compound: CCCCN1C(=O)[C@]2(c3ccccc31)[C@H](c1cn(-c3ccccc3)nc1-c1ccccc1)[C@@](C#N)(C(=O)c1c[nH]c3ccccc13)C1CSCN12 (stereo partly specified)
- inhibition zone (IZ) [1]: 9 mm
- inhibition zone (IZ) [2]: 9 mm
- inhibition zone (IZ) [5]: 10 mm
- inhibition zone (IZ) [6]: 9 mm
- inhibition zone (IZ) [7]: 10 mm
- inhibition zone (IZ) [8]: 8 mm
- MIC [12]: 250 µg/mL (≈ 363 µM)
- MIC [13]: 500 µg/mL (≈ 726 µM)
- MIC [14]: 500 µg/mL (≈ 726 µM)
- MIC [22]: 500 µg/mL (≈ 726 µM)
- MIC [15]: 250 µg/mL (≈ 363 µM)
- MIC [16]: 500 µg/mL (≈ 726 µM)
- MIC [17]: 250 µg/mL (≈ 363 µM)
- MIC [18]: 250 µg/mL (≈ 363 µM)
- MIC [19]: 500 µg/mL (≈ 726 µM)
- MIC [20]: 125 µg/mL (≈ 181 µM)
- MIC [21]: 125 µg/mL (≈ 181 µM)
